Where two headings read alike, the source gives them in different places.
Tests used:
[1] = DPPH radical scavenging assay; conditions: free radical scavenging; mean ± SD of three independent experiments
Source text: (§1) Reduced or lack of antioxidant activity of these compounds was attributed to the presence of intramolecular N-H···O hydrogen bond between amino and kenone group of the 2-aminochalcones and their sulfanamido derivatives which is envisaged to deactivate the unsaturated moiety. […] A combination of the styryl and the electrophilic α,β-unsaturated carbonyl arms on the same molecular framework encouraged us to evaluate the test compounds for antioxidant properties through the DPPH and NO radical scavenging assays. […] Compound 2a has potential to inhibit both α-glucosidase and α-amylase activities, and to reduce oxidative stress. […] The observed free radical scavenging activities of these molecular hybrids is presumably due to the presence of styryl arm on the intramolecularly hydrogen bonded 2-aminochalcone scaffold.
The antioxidant activities of the test compounds against ascorbic acid (Sigma Aldrich, Saint Louis, Missouri, USA) as a positive control were evaluated using 2,2-diphenyl-1-picrylhydrazyl (DPPH) radical scavenging assay developed by Zhu et al. as described in our previous study. Triplicate solutions (20 µL) of the test compounds and ascorbic acid in DMSO (final concentrations: 5, 10, 25, 50, and 100 µM) were added into each designated well of a 96-well plate. A solution of 0.20 mM DPPH (20 µL) in methanol was added to each well, and the 96-well plate was wrapped with aluminum foil and incubated in the dark for 45 min. Five absorbance readings were recorded at 512 nm using Varioskan flash microplate spectrophotometer reader. The average values obtained from the absorbance readings were used to determine the IC50 and standard deviation values.

[2] = NO free radical scavenging assay (sodium nitroprusside, Griess reaction); conditions: mean ± SD of three independent experiments
Source text: as §1
Nitric oxide was generated from sodium nitroprusside and measured by Griess’ reaction following the literature method. The experiment was done in triplicate with ascorbic acid (vitamin C) used as a positive control for the assay. In a 96 well plate, 5 μL of the test compounds (0.1, 0.5, 1.0, 5.0 and 10.0 μM in methanol) or the positive control were mixed with 5 μL of 10 mM sodium nitroprusside prepared in phosphate buffered saline (pH = 7.4) and allowed to incubate at room temperature for 2.5 h. Afterwards, 30 μL of the Griess reagent (a mixture of 0.2% N-(1-naphthyl)ethylenediamine dihydrochloride and 2% sulfanilamide in […]) was added to each well and the mixtures were and allowed to stand at room temperature for 30 min. Five absorbance readings were recorded at 546 nm using Varioskan flash microplate spectrophotometer reader.

[3] = target: yeast α-glucosidase from Saccharomyces cervisiae (Saccharomyces cerevisiae, UniProt P53341); assay: biochemical
Chain of yeast α-glucosidase from Saccharomyces cervisiae (P53341 whole entry): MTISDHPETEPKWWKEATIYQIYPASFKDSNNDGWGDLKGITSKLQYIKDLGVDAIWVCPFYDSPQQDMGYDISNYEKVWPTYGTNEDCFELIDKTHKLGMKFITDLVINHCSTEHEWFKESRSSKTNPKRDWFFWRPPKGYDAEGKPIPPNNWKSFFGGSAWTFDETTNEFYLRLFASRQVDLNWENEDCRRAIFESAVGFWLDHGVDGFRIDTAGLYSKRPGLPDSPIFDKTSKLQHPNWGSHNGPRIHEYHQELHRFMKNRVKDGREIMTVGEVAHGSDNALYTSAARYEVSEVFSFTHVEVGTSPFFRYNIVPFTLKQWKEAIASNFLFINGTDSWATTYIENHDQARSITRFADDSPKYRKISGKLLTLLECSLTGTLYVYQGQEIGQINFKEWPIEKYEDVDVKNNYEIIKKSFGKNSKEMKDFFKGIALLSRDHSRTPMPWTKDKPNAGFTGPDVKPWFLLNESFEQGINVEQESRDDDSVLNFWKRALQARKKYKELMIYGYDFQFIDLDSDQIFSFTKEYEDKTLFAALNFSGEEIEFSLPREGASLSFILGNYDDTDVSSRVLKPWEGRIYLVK
Method: All the tests and analyses were performed in triplicates following a modified published protocol described in our previous study. […] 2.5, 5, 10, 25 and 50 µM. α-Glucosidase solution (0.48 u/mL, 20 µL), phosphate buffer (100 mM, pH 6.8; 30 µL) and the test sample (20 µL) as well as the reference standard were added in the designated wells, and the reaction mixtures were incubated at 37 °C for 10 min. 2 mM p-nitrophenyl-α-D-glucopyranoside (20 µL) was added to each of the wells containing reaction mixture to initiate the reaction. The reaction was pre-incubated for 30 min at 37 °C. The reaction was stopped by the addition of 20 μL of a solution of sodium carbonate (200 mM) to each well. Five absorbance readings were recorded for each triplicate run at a wavelength of 400 nm using Varioskan flash microplate spectrophotometer (Thermo Scientific, Waltham, MA, USA). The average values obtained from the readings were used to determine the IC50 and standard deviation values. The values were calculated by the nonlinear regression analysis and expressed as the mean SD of three distinct experiments using Graph Pad Prism software.

α-amylase = assay: α-Amylase inhibition assay (α-Amylase Inhibitor Screening Kit); type: biochemical; conditions: mean ± SD of three independent experiments
Method: The α-amylase assay was performed in triplicate using a 96-well plate following the procedure by the manufacturer as outlined in the α-Amylase Inhibitor Screening Kit (Catalog No. K482; Bio Vision). […] For inhibitor control (10 µL of α-amylase inhibitor and 40 µL of assay buffer were added to 3 wells), enzyme control (50 µL of assay buffer was added to three wells) and 50 µL of the test compounds were added into the remaining wells. A solution of α-amylase enzyme (50 µL) prepared by adding 490 µL of assay buffer to 10 µL of α-amylase enzyme was added to each of the wells containing the reaction mixture to initiate the reaction. The plate was incubated for 10 min at room temperature in the dark. Five different absorbance readings were recorded for each triplicate run at a wavelength of 405 nm using Varioskan flash microplate spectrophotometer (Thermo Scientific, Waltham, MA, USA). The IC50 and SD values were calculated using graph pad prism.

α-glucosidase = α-glucosidase (Saccharomyces cerevisiae, UniProt P53341); assay: Enzyme kinetic studies (Lineweaver-Burk and Dixon plots); type: biochemical; conditions: for Ki / mode of inhibition: α-glucosidase; for Ki: PNPG substrate, read-out: Ki (Dixon plot); for mode of inhibition: Lineweaver-Burk and Dixon plots
Chain of α-glucosidase (P53341 whole entry): as above
Method: The Lineweaver-Burk plot of 1/V versus 1/[S] in the presence of different concentrations of compound 2a in the case of α-glucosidase gave a series of straight lines that intersect on the x-axis (Figure 3a). […] The compound probably binds to the active site and other allosteric sites on the enzyme.
Enzyme kinetics studies were performed on compounds 2a and 3e with increasing inhibitor and substrate concentrations. In the experimental procedure, inhibitors concentrations of 0.1, 0.5, 1, 2.5 µM, and final substrate concentration were 0.1, 0.5, 1 and 5 mM were used. 5 μL of the inhibitor and 2 μL of the enzyme (α-glucosidase) were added to each well of the 96-well plate. The reaction was incubated for 20 min at room temperature. 18 μL of the substrate, PNPG (4-nitrophenyl α-D-glucopyranoside) was then added and absorbance readings recorded after every 2 min at wavelength of 400 nm using a Varioskan flash microplate spectrophotometer reader. Lineweaver-Burk plot (the inverse of velocity (1/v) against the inverse of the substrate concentration (1/[S]) were used to determining the type of inhibition, while the inhibitor constant was obtained from the Dixon plot (the inverse of velocity (1/v) against concentration of inhibitor at each substrate concentration)

Vero cells = assay: MTT cytotoxicity assay on Vero cells; type: cell-based; conditions: monkey, 24 h treatment
Method: (§2) Metabolic diseases such as diabetes require a stable long-term therapy accompanied by well tolerated and low toxicity, and this encouraged us to evaluate the safety profile of 2a and 3e as potential antidiabetic agents at least in vitro. The compounds were evaluated for cytotoxicity against the normal monkey kidney cells (Vero cells) and the adenocarcinomic human epithelial (A549) cell line using the 3-(4,5-dimethylthiazol-2-yl)-2, 5-diphenyltetrazolium (MTT) assay.
The cytotoxicity activity of compounds 2a and 3e was evaluated against doxorubicin (positive control) using the 3-(4,5-dimethylthiazol-2-yl)-2,5-diphenyltetrazolium bromide (MTT) assay following a modification of a literature method by Mosmann. The Vero and A549 cells were maintained in Dulbecco′s modified Eagle′s medium (DMEM; Gibco) supplemented with 10% Fetal bovine serum (FBS) and 1% penicillin/streptomycin in culture flasks and incubated at 37 °C in 5% CO2. When the cells reached 85% confluency, they were detached using 2% trypsin. Cell count was performed using a handheld automated cell counter (Scapter 3.0™, Merck). The cells were seeded at 1 × 10^5 cells/well and incubated overnight to allow cell attachment. […] Five absorbance readings were recorded at 517 nm using Varioskan flash microplate spectrophotometer reader.

A549 cells = assay: MTT cytotoxicity assay on A549 cells; type: cell-based, human; conditions: 24 h treatment; for IC50 at 24 h: human, A549 cells
Method: as §2
The cytotoxicity activity of compounds 2a and 3e was evaluated against doxorubicin (positive control) using the 3-(4,5-dimethylthiazol-2-yl)-2,5-diphenyltetrazolium bromide (MTT) assay following a modification of a literature method by Mosmann. The Vero and A549 cells were maintained in Dulbecco′s modified Eagle′s medium (DMEM; Gibco) supplemented with 10% Fetal bovine serum (FBS) and 1% penicillin/streptomycin in culture flasks and incubated at 37 °C in 5% CO2. When the cells reached 85% confluency, they were detached using 2% trypsin. Cell count was performed using a handheld automated cell counter (Scapter 3.0™, Merck). The cells were seeded at 1 × 10^5 cells/well and incubated overnight to allow cell attachment. After 24 h, the cells were treated with different concentrations (0, 2.5, 5, 10, 25, 50, 100 µM) of the test compounds and the reference stand. The cells were incubated for 24 h followed by treatment with 20 µL of MTT solution (5 mg/mL). After 4 h incubation period, DMSO (100 µL) was added to each well to dissolve the formazan crystals. Five absorbance readings were recorded at 517 nm using Varioskan flash microplate spectrophotometer reader.

[4] = mean ± SD of three independent experiments, pH 6.8, 37 °C, read-out: IC50 (SD) α-Glucosidase

Structure (SMILES) | IC50 [1] [µM] | IC50 [2] [µM] | IC50 [3, 4] [µM] | IC50 (α-amylase) [µM] | Ki (α-glucosidase) [µM] | mode of inhibition (α-glucosidase) | IC50 at 24 h (Vero cells) [µM] | IC50 at 24 h (A549 cells) [µM] | melting point [°C] | IC50 [3] [µM] | velocity of the reaction (Vmax) (α-glucosidase; α-glucosidase in the presence of increasing inhibitor concentrations, Lineweaver-Burk plot) [µM/min] | IC50 (A549 cells) [µM]
O=C1O[C@H]([C@@H](O)CO)C(O)=C1O [Ascorbic acid, reference compound] | 4.2 ± 0.27 | 6.14 ± 0.21 |  |  |  |  |  |  |  |  |  | 
CC(=O)c1cc(/C=C/c2ccccc2)ccc1N [Compound 2a, (E)-1-(2-Amino-5-styrylphenyl)ethan-1-one] | 7.1 ± 0.32 | 8.3 ± 0.22 | 5.4 ± 0.1 | 2.3 ± 0.2 | 0.3 ± 0.04 | non-competitive mode of inhibition | 164.6 ± 0.59 | 65.7 ± 0.14 | 119 to 120 |  |  | 
CC(=O)c1cc(/C=C/c2ccc(F)cc2)ccc1N [Compound 2b, (E)-1-(2-Amino-5-(4-fluorostyryl)phenyl)ethan-1-one] | 15.8 ± 0.21 | 7.2 ± 0.4 |  | 19.3 ± 0.42 |  |  |  |  | 149 to 150 | 12.7 ± 0.16 |  | 
CC(=O)c1cc(/C=C/c2ccc(Cl)cc2)ccc1N [Compound 2c, (E)-1-(2-Amino-5-(4-chlorostyryl)phenyl)ethan-1-one] | 10.4 ± 0.15 | 11.6 ± 0.43 |  | 5.8 ± 0.51 |  |  |  |  | 137 to 138 | 15.9 ± 0.34 |  | 
COc1ccc(/C=C/c2ccc(N)c(C(C)=O)c2)cc1 [Compound 2d, (E)-1-(2-Amino-5-(4-methoxystyryl)phenyl)ethan-1-one] | 9.3 ± 0.23 | 25.9 ± 0.61 |  | 9 ± 0.31 |  |  |  |  | 139 to 140 | 30.7 ± 0.42 |  | 
Nc1ccc(/C=C/c2ccccc2)cc1C(=O)/C=C/c1cccc(F)c1 [Compound 3a, (E)-1-(2-Amino-5-((E)-styryl)phenyl)-3-(3-fluorophenyl)prop-2-en-1-one] | 21.6 ± 0.32 | 18.9 ± 0.54 |  | 10.7 ± 0.21 |  |  |  |  | 129 to 130 | 17.8 ± 0.32 |  | 
Nc1ccc(/C=C/c2ccc(F)cc2)cc1C(=O)/C=C/c1cccc(F)c1 [Compound 3b, (E)-1-(2-Amino-5-((E)-4-fluorostyryl)phenyl)-3-(3-fluorophenyl)prop-2-en-1-one] | 6.6 ± 0.33 | 5.3 ± 0.34 | 6.1 ± 0.24 | 15.6 ± 0.6 |  |  |  |  | 175 to 177 |  |  | 
Nc1ccc(/C=C/c2ccc(Cl)cc2)cc1C(=O)/C=C/c1cccc(F)c1 [Compound 3c, (E)-1-(2-Amino-5-((E)-4-Chlorostyryl)phenyl)-3-(3-fluorophenyl)prop-2-en-1-one] | 15.3 ± 0.1 | 10.6 ± 0.3 |  | 2.4 ± 0.1 |  |  |  |  | 187 to 188 | 12.6 ± 0.31 |  | 
COc1ccc(/C=C/c2ccc(N)c(C(=O)/C=C/c3cccc(F)c3)c2)cc1 [Compound 3d, (E)-1-(2-Amino-5-((E)-4-methoxystyryl)phenyl)-3-(3-fluorophenyl)prop-2-en-1-one] | 3.9 ± 0.21 | 7.9 ± 0.28 | 9.4 ± 0.5 | 7 ± 0.45 |  |  |  |  |  |  |  | 
Nc1ccc(/C=C/c2ccccc2)cc1C(=O)/C=C/c1ccc(F)cc1 [Compound 3e, (E)-1-(2-Amino-5-((E)-styryl)phenyl)-3-(4-fluorophenyl)prop-2-en-1-one] | 4.2 ± 0.43 | 20.5 ± 0.46 | 5.1 ± 0.61 | 1.6 ± 0.52 | 1.48 ± 0.05 | mixed mode of inhibition | 220 ± 0.57 | 204 ± 0.55 | 161 to 162 |  | 0.01 ± 0.002 | 
Nc1ccc(/C=C/c2ccc(F)cc2)cc1C(=O)/C=C/c1ccc(F)cc1 [Compound 3f, (E)-1-(2-Amino-5-((E)-4-fluorostyryl)phenyl)-3-(4-fluorophenyl)prop-2-en-1-one] | 18.5 ± 0.37 | 8.8 ± 0.33 | 6.9 ± 0.37 | 9.5 ± 0.41 |  |  |  |  |  |  |  | 
Nc1ccc(/C=C/c2ccc(Cl)cc2)cc1C(=O)/C=C/c1ccc(F)cc1 [Compound 3g, (E)-1-(2-Amino-5-((E)-4-chlorostyryl)phenyl)-3-(4-fluorophenyl)prop-2-en-1-one] | 5.2 ± 0.53 | 15.1 ± 0.19 |  | 1.7 ± 0.25 |  |  |  |  | 197 to 198 | 19.2 ± 0.47 |  | 
COc1ccc(/C=C/c2ccc(N)c(C(=O)/C=C/c3ccc(F)cc3)c2)cc1 [Compound 3h, (E)-1-(2-Amino-5-((E)-4-methoxystyryl)phenyl)-3-(4-fluorophenyl)prop-2-en-1-one] | 25.8 ± 0.43 | 20.2 ± 0.23 |  | 7.6 ± 0.2 |  |  |  |  | 153 to 154 | 10.5 ± 0.18 |  | 
COc1cccc2c1C(=O)c1c(O)c3c(c(O)c1C2=O)C[C@@](O)(C(=O)CO)C[C@@H]3O[C@H]1C[C@H](N)[C@H](O)[C@H](C)O1 [Doxorubicin, reference compound] |  |  |  |  |  |  |  |  |  |  |  | 1.14 ± 0.23

From article PMC8125089, “Synthesis, Structure, Carbohydrate Enzyme Inhibition, Antioxidant Activity, In Silico Drug-Receptor Interactions and Drug-Like Profiling of the 5-Styryl-2-Aminochalcone Hybrids” (Molecules, 2021)
